Drawing on patent US20260103471A1, “CYCLIC UREA THIAZOLYL COMPOUNDS FOR TREATMENT OF HSV” (Assembly Biosciences, Inc., priority 2022, published 2026), this text covers EC50 for 55 molecules.

Molecules are shown by their SMILES. Bounds are passed on as bounds.

For this assay, the system named is HSV-2 G strain. Put plainly: HSV-2 Antiviral Assay (Vero cells, cell viability). In kind it is cell-based. The note with it: Human alphaherpesvirus 2, Vero, 120 h, Vero cells, 160 TCID50 HSV-2 G strain, 5 days, cell viability. As for the experimental part: Vero cells were cultured in Dulbecco's Modified Eagle Medium (DMVEM) supplemented with […] and 100 units/mL penicillin and streptomycin. The cells were passaged 2-3 times per week to maintain sub-confluent densities.
Vero cells were seeded into 96-well plates at a density of 1.0×10^4 cells per well and allowed to attach overnight. Following attachment, the media was replaced with 50 μL of infection medium (DMEM supplemented with 2% fetal bovine serum and 100 units/mL penicillin and streptomycin). A Tecan D300e digital dispenser was then used to add compounds to the culture using an 8-point 3-fold serial dilution format. The DMSO concentration was normalized to 0.5% for all treatments. Following compound addition, 50 μL of infection medium containing 160 TCID50 HSV-2 G strain was added to the cells and incubated at 37° C. for 5 days. After the incubation, 10 μL/well of WST-8 chromogenic reagent was added and the plates incubated at 37° C. for 3 hours. Following the incubation, cell viability was quantified by measuring the absorbance at 460 nm and 620 nm using a Tecan Infinite M1000 Pro plate reader.
Turning to `Cc1nc(N2CCCN(c3ccc(-c4cccc(-c5cscn5)c4)cc3)C2=O)sc1S(N)(=O)=O` [Compound 229], the EC50 is below 100 nM. In the case of `Cc1nc(N2CCCN(c3ccc(-c4cc(F)cc5c(C)c(C#N)sc45)cc3)C2=O)sc1S(N)(=O)=O` [Compound 280] it was 1000 to 5000 nM; in that of `Cc1nc(N2CCCN(c3ccc(-c4cc(C(F)(F)F)cc5c4c(C#N)cn5C)cc3)C2=O)sc1S(N)(=O)=O` [Compound 290], 1000 to 5000 nM; in that of `Cc1nc(N2CCCN(c3ccc(-c4ccccc4C4(C#N)CC4)cc3)C2=O)sc1S(N)(=O)=O` [Compound 23], 1000 to 5000 nM. As for `Cc1nc(N2CCCN(c3ccc(-c4cccc5c4C(F)(F)CCO5)cc3)C2=O)sc1S(N)(=O)=O` [Compound 266], the figure is 100 to 1000 nM; as for `Cc1nc(N2CCCN(c3ccc(-c4cccc5c4cc(C)n5C)cc3)C2=O)sc1S(N)(=O)=O` [Compound 250], below 100 nM. As for `Cc1nc(N2CCCN(c3ccc(-c4cccn5nncc45)cc3)C2=O)sc1S(N)(=O)=O` [Compound 263], the figure is 100 to 1000 nM; as for `Cc1nc(N2CCCN(c3ccc(-c4cccc(C5(C#N)CC5)c4)cc3)C2=O)sc1S(N)(=O)=O` [Compound 198], below 100 nM.

`Cc1nc(N2CCCN(c3ccc(-c4cc(C(F)(F)F)cc5nsnc45)cc3)C2=O)sc1S(N)(=O)=O` [Compound 244] gave an EC50 below 100 nM. As for `Cc1nc(N2CCCN(c3ccc(-c4cc(Cl)cc(Cl)c4F)cc3)C2=O)sc1S(N)(=O)=O` [Compound 213], the figure is below 100 nM.

As to `Cc1nc(N2CCCN(c3ccc(-c4cc(F)ccc4F)cc3)C2=O)sc1S(=O)(=O)NCCO` [Compound 388, 2-(3-(2′,5′-difluoro-[1,1′-biphenyl]-4-yl)-2-oxotetrahydropyrimidin-1(2H)-yl)-N-(2-hydroxyethyl)-4-methylthiazole-5-sulfonamide], the EC50 was below 100 nM.

In turn, `Cc1nc(N2CCCN(c3ccc(-c4cccc5cnsc45)cc3)C2=O)sc1S(N)(=O)=O` [Compound 258] came in with an EC50 below 100 nM. As for `Cc1nc(N2CCCN(c3ccc(-c4cc(C(F)(F)F)ccn4)cc3)C2=O)sc1S(N)(=O)=O` [Compound 240], the figure is 100 to 1000 nM; as for `Cc1nc(N2CCCN(c3ccc(-c4cccc5sccc45)cc3)C2=O)sc1S(N)(=O)=O` [Compound 285], below 100 nM.

`Cc1nc(N2CCCN(c3ccc(-c4cc(F)cc(F)c4O)cc3)C2=O)sc1S(N)(=O)=O` [Compound 215] came in with a concentration for a half-maximal effect (EC50) below 100 nM. As for `Cc1nc(N2CC(C#N)CN(c3ccc(-c4cc(F)ccc4F)cc3)C2=O)sc1S(N)(=O)=O` (stereo not shown) [Compound 360, 2-(5-cyano-3-(2′,5′-difluoro-[1,1′-biphenyl]-4-yl)-2-oxotetrahydropyrimidin-1(2H)-yl)-4-methylthiazole-5-sulfonamide], the figure is below 100 nM; as for `Cc1nc(N2CC(C(F)(F)F)CN(c3ccc(-c4cc(F)ccc4F)cc3)C2=O)sc1S(N)(=O)=O` (stereo not shown) [Compound 368], below 100 nM. As for `Cc1nc(N2CCCN(c3ccc(-c4cc(F)cc5c(C)c(C(C)(C)F)sc45)cc3)C2=O)sc1S(N)(=O)=O` [Compound 283], the figure is 100 to 1000 nM; as for `Cc1nc(N2C[C@@H](C#N)CN(c3ccc(-c4cc(F)ccc4F)cc3)C2=O)sc1S(N)(=O)=O` (single isomer, unassigned) [Compound 362], below 100 nM; as for `Cc1nc(N2CCCN(c3ccc(-c4cccc5c(C)cnn45)cc3)C2=O)sc1S(N)(=O)=O` [Compound 247], below 100 nM.

The molecule `Cc1nc(N2CCCN(c3ccc(-c4ncccc4F)cc3)C2=O)sc1S(=O)(=O)NC1CC1` [Compound 409] returned a concentration for a half-maximal effect (EC50) below 100 nM. As for `COc1c(F)cc(F)cc1-c1ccc(N2CCCN(c3nc(C)c(S(=O)(=O)NCCCCCCCCCCO)s3)C2=O)cc1` [Compound 422], the figure is below 100 nM; as for `CN=[S@](C)(=O)c1sc(N2CCCN(c3ccc(-c4ccccc4F)cc3)C2=O)nc1C` (single isomer, unassigned) [Compound 146], 100 to 1000 nM; as for `Cc1nc(N2C[C@@H](F)CN(c3ccc(-c4cc(F)ccc4F)cc3)C2=O)sc1S(=O)(=O)NCCO` (single isomer, unassigned) [Compound 415], below 100 nM. As for `Cc1nc(N2CCCCN(c3ccc(-c4cccc5ncsc45)cc3)C2=O)sc1S(C)(=N)=O` (stereo not shown) [Compound 428], the figure is below 100 nM; as for `COc1ccc(F)cc1-c1ccc(N2CC3(COC3)CN(c3nc(C)c(S(C)(=O)=O)s3)C2=O)cc1` [Compound 435], below 100 nM. As for `Cc1cccc(-c2ccc(N3CCCN(c4nc(C)c(S(N)(=O)=O)s4)C3=O)cc2)n1` [Compound 184], the figure is below 100 nM; as for `Cc1nc(N2CC[C@@H](C)N(c3ccc(-c4cc(F)ccc4F)cc3)C2=O)sc1S(N)(=O)=O` (single isomer, unassigned) [Compound 333], below 100 nM; as for `Cc1nc(N2CCCN(c3ccc(-c4snc5c(F)ccc(F)c45)cc3)C2=O)sc1S(N)(=O)=O` [Compound 307], 100 to 1000 nM. Molecule `Cc1nc(N2CC3(COC3)CN(c3ccc(-c4cc(F)ccc4F)cc3)C2=O)sc1[S@@](C)(=N)=O` (single isomer, unassigned) [Compound 432] had an EC50 below 100 nM. `Cc1nc(N2CCCN(c3ccc(-c4cccc5c4C(F)(F)CO5)cc3)C2=O)sc1S(N)(=O)=O` [Compound 264] gave a half-maximal effective concentration (EC50) below 100 nM. On to `COc1ccc(F)cc1-c1ccc(N2CC3(COC3)CN(c3nc(C)c(S(N)(=O)=O)s3)C2=O)cc1` [Compound 378], for which the EC50 was below 100 nM. In the case of `Cc1nc(N2CCCN(c3ccc(-c4cc(F)ccc4F)cc3)C2=O)sc1S(=O)(=O)NCCCCCCCCCCO` [Compound 420] it was below 100 nM; in that of `COc1c(F)cc(F)cc1-c1ccc(N2C[C@H](C(F)(F)F)CN(c3nc(C)c(S(N)(=O)=O)s3)C2=O)cc1` (single isomer, unassigned) [Compound 374], below 100 nM; in that of `Cc1nc(N2CCCN(c3ccc(-c4cc(F)ccc4SC(F)(F)F)cc3)C2=O)sc1S(N)(=O)=O` [Compound 219], 100 to 1000 nM.

For the molecule `Cc1nc(N2CCCN(c3ccc(-c4cc(F)cc5cc(C(N)=O)sc45)cc3)C2=O)sc1S(N)(=O)=O` [Compound 254], the EC50 fell in the range of 100 to 1000 nM. In the case of `Cc1nc(N2C[C@@H](C(C)(C)O)CN(c3ccc(-c4cc(F)ccc4F)cc3)C2=O)sc1S(N)(=O)=O` (single isomer, unassigned) [Compound 344] it was below 100 nM; in that of `COc1c(F)cc(F)cc1-c1ccc(N2CC(F)CN(c3nc(C)c(S(N)(=O)=O)s3)C2=O)cc1` (stereo not shown) [Compound 366], below 100 nM; in that of `COc1c(F)cc(F)cc1-c1ccc(N2CC(C(C)(C)O)CN(c3nc(C)c(S(N)(=O)=O)s3)C2=O)cc1` (stereo not shown) [Compound 345], 100 to 1000 nM. As for `Cc1nc(N2CCCN(c3ccc(-c4cc(F)ccc4F)cc3)C2=O)sc1S(=O)(=O)NCCCF` [Compound 391], the figure is below 100 nM; as for `Cc1nc(N2C[C@H](F)CN(c3ccc(-c4cc(F)ccc4F)cc3)C2=O)sc1S(N)(=O)=O` (single isomer, unassigned) [Compound 364], below 100 nM; as for `COc1ccc(F)cc1-c1ccc(N2C[C@H](C)CN(c3nc(C)c(S(N)(=O)=O)s3)C2=O)cc1` (single isomer, unassigned) [Compound 331], below 100 nM. In the case of `Cc1nc(N2CCCN(c3ccc(-c4cccn5cncc45)cc3)C2=O)sc1S(N)(=O)=O` [Compound 65] it was 100 to 1000 nM; in that of `Cc1nc(N2CCCN(c3ccc(-c4cc(F)cc5cc(C(C)(C)F)sc45)cc3)C2=O)sc1S(N)(=O)=O` [Compound 284], 100 to 1000 nM. The molecule `Cc1nc(N2CCCN(c3ccc(-c4cc(F)ccc4F)cc3)C2=O)sc1S(=O)(=O)NC[C@@H](C)CO` [Compound 395] returned an EC50 below 100 nM. As for `Cc1nc(N2CCCN(c3ccc(-c4cc(F)ccc4F)cc3)C2=O)sc1S(=O)(=O)N1CCC(N)C1` (stereo not shown) [Compound 397], the figure is 100 to 1000 nM. In the case of `COc1c(F)cc(F)cc1-c1ccc(N2C[C@@H](C(C)(C)O)CN(c3nc(C)c(S(N)(=O)=O)s3)C2=O)cc1` (single isomer, unassigned) [Compound 346] it was 100 to 1000 nM; in that of `Cc1nc(N2CCCCN(c3ccc(-c4cc(F)ccc4F)cc3)C2=O)sc1[S@](C)(=N)=O` (single isomer, unassigned) [Compound 427], below 100 nM; in that of `Cc1nc(N2CCCN(c3ccc(-c4cc(F)cc5c(C)c(C(C)(C)O)sc45)cc3)C2=O)sc1S(N)(=O)=O` [Compound 282], 100 to 1000 nM. As for `Cc1nc(N2CCCN(c3ccc(-c4ccccc4/C=C/C#N)cc3)C2=O)sc1S(N)(=O)=O` [Compound 20], the figure is 100 to 1000 nM. `Cc1nc(N2CCCN(c3ccc(-c4snc5c(F)cc(F)cc45)cc3)C2=O)sc1S(N)(=O)=O` [Compound 306] returned a half-maximal effective concentration (EC50) below 100 nM. In the case of `Cc1nc(N2CCCN(c3ccc(-c4cc(F)ccc4F)cc3)C2=O)sc1S(=O)(=O)N1CC2(COC2)C1` [Compound 403] it was below 100 nM; in that of `Cc1nc(N2C[C@H](C(F)F)CN(c3ccc(-c4cc(F)ccc4F)cc3)C2=O)sc1S(N)(=O)=O` (single isomer, unassigned) [Compound 350], below 100 nM. As for `Cc1nc(N2CCCN(c3ccc(-c4cncc5c4cnn5C)cc3)C2=O)sc1S(N)(=O)=O` [Compound 288], the figure is 100 to 1000 nM; as for `Cc1nc(N2CCCN(c3ccc(-c4cc(C(F)(F)F)cc5c4cnn5C)cc3)C2=O)sc1S(N)(=O)=O` [Compound 287], below 100 nM.

By EC50 is commonly meant the concentration needed to bring the measured effect to its halfway point. A lower EC50 goes with an effect from little substance.
